Results as given in patent US9580521B1, “Process for making a poly(zwitterion/dianion)” (King Fahd University of Petroleum and Minerals, priority 2013, dated 2017).

Assay: Inhibition of calcium sulfate (gypsum) scaling, conductivity measurements
Details: 20 ppm, supersaturated CaSO4 (3 CB); for 4, 9 and 5 screening by visual inspection under the same conditions
Description: The concentration of reject brine (i.e., concentrated brine (CB)) is denoted as 1 CB.
The evaluation of the newly developed scale inhibitor PZA 6 was performed in 3 CB solutions supersaturated with respect to CaSO4 as confirmed from solubility data of CaSO4. To a solution of 6 CB calcium chloride (60 mL) containing PZA 6 (40 ppm i.e. 40 mg/L) at 40° C.±1° C. was added quickly a preheated (40° C.) solution of 6 CB sodium sulfate (60 mL). The resultant 3 CB solution containing 20 ppm of PZA 6 was stirred at 300 rpm using a magnetic stir-bar, and conductivity measurements were made at an interval of every 10 min initially to quantify the effectiveness of the newly developed antiscalant. The drop in conductivity indicates the precipitation of CaSO4. Induction time was measured with a decrease in conductivity when precipitation started. Visual inspection was carefully done to see any turbidity arising from precipitation.
The reject brine in the Reverse Osmosis process has dissolved salts which precipitate in the event of exceeding their solubility limits. […]
A drop in conductivity is indicative of precipitation of CaSO4. […] To our satisfaction, there was no considerable change in conductivity for about 500 min, registering a 98% scale inhibition as calculated using eq 5: […]

With `C=CC[N+](CC=C)(CCCP(=O)(OCC)OCC)CCCS(=O)(=O)[O-]` [Monomer 4, 3-[diallyl {3-(diethoxyphosphoryl)propyl}ammonio]propane-1-sulfonate] the “CaSO4 scale inhibition (in words)” value was “neither monomers 4 and 9 nor polymer 5 gave any effective inhibition”.
